Test results as given in patent US7850984B2, “Protection of the female reproductive system from natural and artificial insults” (The General Hospital Corporation, priority 2000, dated 2010).
“Also recorded” adds a separate entry of the source.

Tested on: F1 and F2 mice
Test: Necropsy, histology and hematology of F1 and F2 offspring
Format: in vivo
Settings: for HCT / HGB, Hemoglobin / MCH, Mean Corpuscular Hemoglobin / MCHC, Mean Corpuscular Hemoglobin Content / MCV, Mean Corpuscular Volume / RBC, Red Blood Cell Count / WBC, Total White Blood Cell Count: 0.1 Gy + S1P, mean, 95% confidence limit; for Pathology, gross necropsy / Pathology, histology: offspring of 0.1 Gy + S1P mothers
Method: When the F1 animals reach 18-20 months of age and the F2 animals reach 12-16 months of age, all mice are euthanized and subjected to gross necropsy and biochemical analysis. Organs from a subgroup of 65 randomly selected animals in the two different generations are also subjected to complete histologic analysis.
Eighteen to 20 month-old F1 mice, and 12-16 month-old F2 mice, are euthanized and gross pathology is assessed immediately upon death. In a total of 484 mice, the heart, lung, stomach, small and large intestine, liver, salivary gland, kidney, urinary bladder, brain, cervical spinal cord, muscle, bone, bone marrow, skin, pituitary, thyroid, pancreas, adrenal, lymph node, spleen, thymus, testis (males), seminal vesicle (males), prostate (males), ovary (females), and uterus (females) are evaluated. Any organ showing gross abnormalities is fixed with 10% paraformaldehyde, encased in paraffin, and stained with hematoxylin and eosin for in-depth histologic analysis. Furthermore, histology on all organs is performed on 65 randomly selected mice of different generations (F1 or F2), different genders, and different experimental treatments. From an additional 28 randomly-selected mice, blood is collected by cardiac puncture for hematologic analysis, and in 9 animals full differential counts are performed. Differential white cell counts are also performed in all mice displaying a pathological phenotype.

[1] = N=189, numbers in parenthesis = animals

Q: How did the HCT (first group (N=69)) turn out when `CCCCCCCCCCCCC/C=C/[C@@H](O)[C@@H](N)COP(=O)(O)O` [S1P, sphingosine-1-phosphate] was run?
A: Its HCT is 45.4.

Q: What about the “HGB, Hemoglobin” value (first group (N=69)) of the same molecule?
A: The value was 14.2 g/dL.

Q: And the “MCH, Mean Corpuscular Hemoglobin” value (first group (N=69))?
A: The value was 15.3 pg.

Q: What about the “MCHC, Mean Corpuscular Hemoglobin Content” value (first group (N=69)) of the same molecule?
A: The value was 31.4 g/dL.

Q: And the “MCV, Mean Corpuscular Volume” value (first group (N=69))?
A: Its value is 49.1 fL.

Q: What about the “RBC, Red Blood Cell Count” value (first group (N=69)) of the same molecule?
A: Its value is 9.3e+12 L⁻¹.

Q: And the “WBC, Total White Blood Cell Count” value (first group (N=69))?
A: The value was 1.09e+10 L⁻¹.

Q: And the HCT (second group (N=189))?
A: The HCT was 46.3.

Q: What about the “HGB, Hemoglobin” value (second group (N=189)) of the same molecule?
A: Its value is 14.9 g/dL.

Q: And the “MCH, Mean Corpuscular Hemoglobin” value (second group (N=189))?
A: Its value is 15.9 pg.

Q: What about the “MCHC, Mean Corpuscular Hemoglobin Content” value (second group (N=189)) of the same molecule?
A: Its value is 30.8 g/dL.

Q: And the “MCV, Mean Corpuscular Volume” value (second group (N=189))?
A: The value was 49.2 fL.

Q: What about the “RBC, Red Blood Cell Count” value (second group (N=189)) of the same molecule?
A: The value was 9.4e+12 L⁻¹.

Q: What about the “WBC, Total White Blood Cell Count” value (second group (N=189)) of the same molecule?
A: The value was 1.1e+10 L⁻¹.

Q: And the “gross histologic or biochemical abnormalities in offspring” value (F1 at 18-20 months, F2 at 12-16 months)?
A: Its value is “No gross histologic or biochemical abnormalities”.

Q: What about the “Pathology, gross necropsy” value (N=69) of the same molecule?
A: The value was “Enlarged uterus; also recorded: Perineal tumor”.

Q: And the “Pathology, histology” value (N=69, numbers in parenthesis = animals)?
A: The value was “LI in liver (2); also recorded: LI in lung (3); also recorded: Mucometra; also recorded: Lipoma”.

Q: And the “Pathology, gross necropsy” value [1]?
A: Its value is “Dermatitis (3); also recorded: Cyst in right ovary; also recorded: Alopecia; also recorded: Traumatic injury”.

Q: And the “Pathology, histology” value [1]?
A: The value was “LI in lung (7); also recorded: Liver (3); also recorded: Kidney; also recorded: Ovarian cyst”.
